What was measured:
rat [1] = conditions: Combined chronic toxicity/carcinogenicity, sprague dawley, Oral, Feed, dose end: 108 week, group: systemic
dog [2] = conditions: Chronic toxicity, beagle, Oral, Gavage/Intubation, dose end: 6 month, group: systemic
mouse [3] = conditions: Carcinogenicity, cd1, Oral, Feed, dose end: 104 week, group: systemic
mouse [4] = conditions: Combined chronic toxicity/carcinogenicity, b6c3f1, Oral, Water, dose end: 104 week, group: systemic
rat [5] = conditions: Chronic toxicity, sprague dawley, Oral, Feed, dose end: 4 week, group: systemic
rat [6] = conditions: Multigenerational reproductive toxicity study, sprague dawley, Inhalation, Whole-Body, dose end: 2 generation
rat [7] = conditions: Prenatal developmental toxicity study; wistar; Inhalation; Whole-Body; dose end: 19 GD; group: maternal; systemic / pathology gross / kidney / [other]
rat [8] = conditions: Combined chronic toxicity/carcinogenicity; sprague dawley; Oral; Feed; dose end: 104 week; group: systemic; systemic / in life observation / body weight / body weight + systemic / in life observation / body weight / body weight gain + systemic / in…
mouse [9] = conditions: Subchronic oral toxicity in rodents, cd1, Feed, dose end: 13 week, group: systemic
rat [10] = conditions: Prenatal developmental toxicity study, sprague dawley, Oral, Gavage/Intubation, dose end: 15 GD
mouse [11] = conditions: Subchronic oral toxicity in rodents, cd1, Feed, dose end: 17 week, group: systemic, systemic / organ weight / liver / absolute + systemic / organ weight / liver / relative to body weight + systemic / organ weight / liver / …
mouse [12] = conditions: Carcinogenicity, cd1, Oral, Feed, dose end: 24 month, group: systemic
rat [13] = conditions: Combined chronic toxicity/carcinogenicity, sprague dawley, Oral, Feed, dose end: 24 month, group: systemic
dog [14] = conditions: Subchronic oral toxicity in nonrodent, beagle, Feed, dose end: 13 week, group: systemic, systemic / pathology microscopic / stomach / [other]
rat [15] = conditions: Subchronic oral toxicity in rodents, other, Feed, dose end: 3 month, group: systemic
dog [16] = conditions: Chronic toxicity, beagle, Oral, Feed, dose end: 52 week, group: systemic
rat [17] = conditions: Multigenerational reproductive toxicity study, other, Oral, Feed, dose end: 2 generation
mouse [18] = conditions: Carcinogenicity, cd1, Oral, Feed, dose end: 18 month, group: systemic
rat [19] = conditions: Prenatal developmental toxicity study, sprague dawley, Oral, Gavage/Intubation, dose end: 15 GD; remark: listed apart in the source
rabbit = conditions: Prenatal developmental toxicity study, new zealand white, Oral, Gavage/Intubation, dose end: 19 GD
mouse [20] = conditions: Subchronic oral toxicity in rodents, cd1, Feed, dose end: 13 week, group: systemic, systemic / pathology microscopic / liver / hypertrophy + systemic / pathology microscopic / liver / necrosis + systemic / pathology …
[21] = systemic / pathology microscopic / adrenal gland / hyperplasia + systemic / pathology microscopic / thyroid gland / hyperplasia
[22] = systemic / pathology microscopic / adrenal gland / hyperplasia + systemic / pathology microscopic / thyroid gland / hyperplasia + systemic…
[23] = systemic / organ weight / thyroid gland / absolute
[24] = systemic / organ weight / thyroid gland / absolute + systemic / hematology / platelet / platelet + systemic / in life observation / body …
[25] = systemic / pathology microscopic / liver / pigmentation
[26] = systemic / in life observation / body weight / body weight
[27] = systemic / in life observation / body weight / body weight + systemic / in life observation / water consumption / water consumption
[28] = systemic / in life observation / body weight / body weight gain
[29] = systemic / in life observation / body weight / body weight gain + systemic / in life observation / food consumption / food consumption
[30] = group: offspring, systemic / in life observation / body weight / offspring (pup) weight
[31] = group: parental, systemic / in life observation / body weight / body weight
[32] = group: reproductive, reproductive / reproductive performance / pregnancy / pregnancy
[33] = systemic / pathology microscopic / liver / hypertrophy + systemic / pathology microscopic / liver / necrosis + systemic / pathology …
[34] = group: developmental, developmental / developmental malformation / bone / short + developmental / developmental malformation / bone / unossified + developmental…
[35] = group: maternal, systemic / in life observation / body weight / body weight gain + systemic / in life observation / food consumption / food consumption
[36] = group: maternal, systemic / in life observation / body weight / body weight gain + systemic / in life observation / food consumption / food consumption + …
[37] = systemic / pathology microscopic / liver / lesion(s) (nos) + systemic / organ weight / liver / nos
[38] = systemic / in life observation / body weight / body weight gain + systemic / pathology microscopic / liver / hypertrophy + systemic / …
[39] = systemic / pathology microscopic / mammary gland / hypertrophy
[40] = systemic / pathology microscopic / stomach / hyperemia
[41] = group: offspring, systemic / in life observation / body weight / offspring (pup) weight + systemic / pathology microscopic / liver / hypertrophy
[42] = group: offspring, systemic / in life observation / body weight / offspring (pup) weight + systemic / pathology microscopic / liver / hypertrophy + …
[43] = group: parental, systemic / pathology microscopic / liver / hypertrophy
[44] = group: parental, systemic / pathology microscopic / liver / hypertrophy + systemic / in life observation / food consumption / food consumption + systemic / …
[45] = group: reproductive, reproductive / offspring survival early / litter size / litter size + reproductive / offspring survival early / birth index / live birth …
[46] = systemic / pathology microscopic / liver / hypertrophy + systemic / organ weight / liver / absolute + systemic / organ weight / liver / …
[47] = group: developmental, developmental / developmental malformation / mouth / jaw / cleft palate + systemic / in life observation / body weight / fetal weight
[48] = group: maternal, systemic / in life observation / body weight / body weight gain + systemic / in life observation / clinical signs / ataxia + systemic / in …
[49] = group: developmental, developmental / developmental malformation / bone / full supernumerary

`COC(=O)NS(=O)(=O)c1ccc(N)cc1` [Asulam] gave an LEL (rat [1]; [21]) of 180 mg/kg/day, an LOAEL (rat [1]; [21]) of 180 mg/kg/day and an NEL (rat [1]; [22]) of 36 mg/kg/day. The NOAEL (rat [1]; [22]) was 36 mg/kg/day, the LEL (dog [2]; [23]) was 300 mg/kg/day and the LOAEL (dog [2]; [23]) was 300 mg/kg/day. For the same compound, the NEL (dog [2]; [24]) was 60 mg/kg/day, the NOAEL (dog [2]; [24]) was 60 mg/kg/day and the LOAEL (mouse [3]; systemic / in life observation / body weight / body weight gain + systemic / organ weight / spleen / nos) was 8040 mg/kg/day. The LEL (mouse [3]; [25]) was 74 mg/kg/day, the NEL (mouse [3]; [25]) was less than 74 mg/kg/day and the NOAEL (mouse [3]; systemic / pathology microscopic / liver / pigmentation + systemic / in life observation / body weight / body weight gain + systemic / organ…) was 730 mg/kg/day.
`NCl` [Chloramine] was tested, and the LEL (mouse [4]; [26]) was 6.67 mg/kg/day, the NEL (mouse [4]; [26]) was less than 6.67 mg/kg/day and the LOAEL (mouse [4]; [27]) was greater than 26.7 mg/kg/day. The NOAEL (mouse [4]; [27]) was no less than 26.7 mg/kg/day.
Compound `CBr` [Methyl bromide] has an LOAEL (rat [5]; [28]) of 7.59 mg/kg/day, an NEL (rat [5]; [29]) of 0.082 mg/kg/day and an NOAEL (rat [5]; [29]) of 0.825 mg/kg/day. For the same compound, the LEL (rat [5]; systemic / in life observation / food consumption / food consumption) was 0.825 mg/kg/day, the LEL (rat [6]; [30]) was 30 ppm and the LOAEL (rat [6]; [30]) was 30 ppm. For the same compound, the NEL (rat [6]; [30]) was 3 ppm, the NOAEL (rat [6]; [30]) was 3 ppm and the LOAEL (rat [6]; [31]) was 90 ppm. For the same compound, the NOAEL (rat [6]; [31]) was 30 ppm, the LEL (rat [6]; group: parental, systemic / in life observation / body weight / body weight + systemic / organ weight / liver / relative to body weight + systemic / organ …) was 90 ppm and the NEL (rat [6]; group: parental, systemic / organ weight / liver / relative to body weight) was 30 ppm. It also gave an LEL (rat [6]; [32]) of 30 ppm, an LOAEL (rat [6]; [32]) of 30 ppm and an NEL (rat [6]; [32]) of 3 ppm. It also gave an NOAEL (rat [6]; [32]) of 3 ppm, an LEL (rat [7]) of 70 ppm and an LOAEL (rat [7]) of 70 ppm. For the same compound, the NEL (rat [7]) was 20 ppm, the NOAEL (rat [7]) was 20 ppm and the LEL (rat [8]) was 11.1 mg/kg/day. It also gave an LOAEL (rat [8]) of 11.1 mg/kg/day, an NEL (rat [8]) of 2.2 mg/kg/day and an NOAEL (rat [8]) of 2.2 mg/kg/day.
`CCCC1COC(Cn2cncn2)(c2ccc(Cl)cc2Cl)O1` (configuration not stated) [Propiconazole] gave an LOAEL (mouse [9]; systemic / pathology microscopic / liver / hypertrophy) of 65 mg/kg/day, an LEL (mouse [9]; systemic / pathology microscopic / liver / hypertrophy + systemic / pathology microscopic / liver / necrosis) of 65 mg/kg/day and an NEL (mouse [9]; [33]) of 2.7 mg/kg/day. For the same compound, the NOAEL (mouse [9]; [33]) was 2.7 mg/kg/day, the LEL (rat [10]; [34]) was 90 mg/kg/day and the LOAEL (rat [10]; [34]) was 90 mg/kg/day. For the same compound, the NEL (rat [10]; [34]) was 30 mg/kg/day, the NOAEL (rat [10]; [34]) was 30 mg/kg/day and the LEL (rat [10]; [35]) was 90 mg/kg/day. For the same compound, the NEL (rat [10]; [36]) was 30 mg/kg/day, the NOAEL (rat [10]; [36]) was 90 mg/kg/day and the LOAEL (rat [10]; group: maternal, systemic / in life observation / clinical signs / ataxia + systemic / in life observation / clinical signs / lethargy + systemic / in life …) was 300 mg/kg/day. It also gave an LEL (mouse [11]) of 65 mg/kg/day, an LOAEL (mouse [11]) of 65 mg/kg/day and an NEL (mouse [11]) of 2.7 mg/kg/day. The NOAEL (mouse [11]) was 2.7 mg/kg/day, the NEL (mouse [12]; systemic / organ weight / liver / nos + systemic / clinical chemistry / alanine aminotransferase (alt/sgpt) / alanine aminotransferase (alt/…) was 10 mg/kg/day and the LEL (mouse [12]; [37]) was 49.4 mg/kg/day. The LOAEL (mouse [12]; [37]) was 49.4 mg/kg/day, the NOAEL (mouse [12]; systemic / pathology microscopic / liver / lesion(s) (nos) + systemic / organ weight / liver / nos + systemic / pathology microscopic / …) was 10 mg/kg/day and the LEL (rat [13]; [38]) was 96.4 mg/kg/day. It also gave an LOAEL (rat [13]; [38]) of 96.4 mg/kg/day, an NOAEL (rat [13]; [38]) of 18.1 mg/kg/day and an NEL (rat [13]; systemic / organ weight / liver / nos) of 18.1 mg/kg/day. For the same compound, the LEL (dog [14]) was 6.25 mg/kg/day, the LOAEL (dog [14]) was 6.25 mg/kg/day and the NEL (dog [14]) was 1.25 mg/kg/day. The NOAEL (dog [14]) was 1.25 mg/kg/day, the LEL (rat [15]; [28]) was 16.8 mg/kg/day and the LOAEL (rat [15]; [28]) was 77.6 mg/kg/day. For the same compound, the NEL (rat [15]; [28]) was less than 16.8 mg/kg/day, the NOAEL (rat [15]; systemic / in life observation / body weight / body weight gain + systemic / clinical chemistry / alkaline phosphatase (alp/alk) / alkaline …) was 16.8 mg/kg/day and the LEL (dog [16]; [39]) was 1.9 mg/kg/day. The NEL (dog [16]; [39]) was 0.2 mg/kg/day, the LOAEL (dog [16]; [40]) was 8.4 mg/kg/day and the NOAEL (dog [16]; [40]) was 1.9 mg/kg/day. For the same compound, the NEL (rat [17]; [41]) was 48 mg/kg/day, the NOAEL (rat [17]; [41]) was 48 mg/kg/day and the LEL (rat [17]; [42]) was 238 mg/kg/day. The LOAEL (rat [17]; [42]) was 238 mg/kg/day, the LEL (rat [17]; [43]) was 42 mg/kg/day and the LOAEL (rat [17]; [43]) was 42 mg/kg/day. For the same compound, the NEL (rat [17]; [44]) was 8 mg/kg/day, the NOAEL (rat [17]; [44]) was 8 mg/kg/day and the LEL (rat [17]; [45]) was 238 mg/kg/day. It also gave an LOAEL (rat [17]; [45]) greater than 238 mg/kg/day, an NEL (rat [17]; [45]) of 48 mg/kg/day and an NOAEL (rat [17]; [45]) of no less than 238 mg/kg/day. The LOAEL (mouse [18]; systemic / pathology microscopic / liver / hypertrophy + systemic / in life observation / body weight / body weight gain) was 59 mg/kg/day, the LEL (mouse [18]; systemic / pathology microscopic / liver / hypertrophy + systemic / in life observation / body weight / body weight gain + systemic / organ …) was 59 mg/kg/day and the NEL (mouse [18]; [46]) was 11 mg/kg/day. The NOAEL (mouse [18]; [46]) was 11 mg/kg/day, the LEL (rat [19]; [47]) was 300 mg/kg/day and the LOAEL (rat [19]; [47]) was greater than 300 mg/kg/day. It also gave an NEL (rat [19]; [47]) of less than 300 mg/kg/day, an NOAEL (rat [19]; [47]) of no less than 300 mg/kg/day and an LEL (rat [19]; [48]) of 300 mg/kg/day. The LOAEL (rat [19]; [48]) was 300 mg/kg/day, the NEL (rat [19]; [48]) was less than 300 mg/kg/day and the NOAEL (rat [19]; [48]) was less than 300 mg/kg/day. It also gave an LEL (rabbit; [49]) of 400 mg/kg/day, an LOAEL (rabbit; [49]) greater than 400 mg/kg/day and an NEL (rabbit; [49]) of 250 mg/kg/day. It also gave an NOAEL (rabbit; [49]) of no less than 400 mg/kg/day, an LEL (rabbit; [35]) of 250 mg/kg/day and an LOAEL (rabbit; [35]) of 250 mg/kg/day. For the same compound, the NEL (rabbit; [36]) was 100 mg/kg/day, the NOAEL (rabbit; [36]) was 100 mg/kg/day and the LEL (mouse [20]) was 65 mg/kg/day. It also gave an LOAEL (mouse [20]) of 65 mg/kg/day, an NEL (mouse [20]) of 2.7 mg/kg/day and an NOAEL (mouse [20]) of 2.7 mg/kg/day.

— EPA's ToxRefDB 2
